Tests used:
late watergrass [1] = assay: Test Example 1: herbicidal activity, application before weed generation under submerged conditions (Table 16, symbol A); assay type: in vivo, late watergrass (Echinochloa oryzicola); settings: 320 g/ha applied herbicide
Outline: (§1)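 Alluvial soil was flooded to 4 cm depth, weed seeds were sown mixed and 2.5-leaf rice seedlings were transplanted. On sowing day, the compound's emulsion, diluted in water to a set dose, was applied to the water surface. Plants grew at 25–30 °C and were scored 0–5 after three weeks.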

Japanese bulrush [2] = assay: Test Example 1: herbicidal activity, application before weed generation under submerged conditions (Table 16, symbol B); assay type: in vivo, Japanese bulrush (Schoenoplectus juncoides); settings: 320 g/ha applied herbicide
Outline: as §1

oval-leafed pondweed [3] = assay: Test Example 1: herbicidal activity, application before weed generation under submerged conditions (Table 16, symbol C); assay type: in vivo, oval-leafed pondweed (Monochoria vaginalis); settings: 320 g/ha applied herbicide
Outline: as §1

late watergrass [4] = assay: Test Example 2: herbicidal activity, application during weed generation under submerged conditions (Table 17, symbol A); assay type: in vivo, late watergrass (Echinochloa oryzicola); settings: AAH 320 g/ha; application during weed generation, submerged conditions
Outline: (§2)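 Herbicide emulsion, diluted with water to the chosen amount, is applied onto 4 cm floodwater over alluvial soil where the weeds were co-sown and raised at 25–30° C. Application timing: 1–2 leaves. Assessment: three weeks afterwards.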

Japanese bulrush [5] = assay: Test Example 2: herbicidal activity, application during weed generation under submerged conditions (Table 17, symbol B); assay type: in vivo, Japanese bulrush (Schoenoplectus juncoides); settings: AAH 320 g/ha; application during weed generation, submerged conditions
Outline: as §2

oval-leafed pondweed [6] = assay: Test Example 2: herbicidal activity, application during weed generation under submerged conditions (Table 17, symbol C); assay type: in vivo, oval-leafed pondweed (Monochoria vaginalis); settings: AAH 320 g/ha; application during weed generation, submerged conditions
Outline: as §2

barnyard grass [7] = assay: Test Example 3: herbicidal effect by foliage application, Wagner pot (Table 18, symbol H); assay type: in vivo, barnyard grass (Echinochloa crus-galli); settings: amount of applied herbicide 320 g/ha
Outline: (§3)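 Plants were sown in alluvial soil held under 0.1–0.5 cm standing water and grown 14 days in a greenhouse at 25–30 °C. An emulsifiable formulation, water-diluted to the set dose, was then sprayed onto the foliage, and effects were scored three weeks later using previously defined criteria.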

Chinese sprangletop = assay: Test Example 3: herbicidal effect by foliage application, Wagner pot (Table 18, symbol D); assay type: in vivo, chinese sprangletop (Leptochloa chinensis); settings: amount of applied herbicide 320 g/ha
Outline: as §3

rice flat sedge = assay: Test Example 3: herbicidal effect by foliage application, Wagner pot (Table 18, symbol E); assay type: in vivo, rice flat sedge (Cyperus iria); settings: amount of applied herbicide 320 g/ha
Outline: as §3

southern crabgrass = assay: Test Example 4: herbicidal effect by soil treatment (Table 19, symbol F); assay type: in vivo, southern crabgrass (Digitaria ciliaris); settings: amount of applied herbicide 320 g/ha
Outline: (§4)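 Herbicidal effect was rated 3 weeks after treatment, using the scoring criteria of an earlier test. The compound, formulated as an emulsion and diluted in water to a set herbicide amount, had been sprayed uniformly on soil over freshly sown seeds. Growth took place in a greenhouse at 25° C. to 30° C.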

green foxtail = assay: Test Example 4: herbicidal effect by soil treatment (Table 19, symbol G); assay type: in vivo, green foxtail (Setaria viridis); settings: amount of applied herbicide 320 g/ha
Outline: as §4

barnyard grass [8] = assay: Test Example 4: herbicidal effect by soil treatment (Table 19, symbol H); assay type: in vivo, barnyard grass (Echinochloa crus-galli); settings: amount of applied herbicide 320 g/ha
Outline: as §4

wild oat = assay: Test Example 4: herbicidal effect by soil treatment (Table 19, symbol I); assay type: in vivo, wild oat (Avena fatua); settings: amount of applied herbicide 320 g/ha
Outline: as §4

blackgrass = assay: Test Example 4: herbicidal effect by soil treatment (Table 19, symbol J); assay type: in vivo, blackgrass (Alopecurus myosuroides); settings: amount of applied herbicide 320 g/ha
Outline: as §4

Italian ryegrass = assay: Test Example 4: herbicidal effect by soil treatment (Table 19, symbol K); assay type: in vivo, Italian ryegrass (Lolium multiflorum); settings: amount of applied herbicide 320 g/ha
Outline: as §4

windgrass = assay: Test Example 4: herbicidal effect by soil treatment (Table 19, symbol L); assay type: in vivo, windgrass (Apera spica-venti); settings: amount of applied herbicide 320 g/ha
Outline: as §4

velvetleaf = assay: Test Example 4: herbicidal effect by soil treatment (Table 19, symbol M); assay type: in vivo, velvetleaf (Abutilon theophrasti); settings: amount of applied herbicide 320 g/ha
Outline: as §4

redroot pigweed = assay: Test Example 4: herbicidal effect by soil treatment (Table 19, symbol N); assay type: in vivo, redroot pigweed (Amaranthus retroflexus); settings: amount of applied herbicide 320 g/ha
Outline: as §4

lambsquarters = assay: Test Example 4: herbicidal effect by soil treatment (Table 19, symbol O); assay type: in vivo, lambsquarters (Chenopodium album); settings: amount of applied herbicide 320 g/ha
Outline: as §4

chickweed = assay: Test Example 4: herbicidal effect by soil treatment (Table 19, symbol P); assay type: in vivo, common chickweed (Stellaria media); settings: amount of applied herbicide 320 g/ha
Outline: as §4

persian speedwell = assay: Test Example 4: herbicidal effect by soil treatment (Table 19, symbol R); assay type: in vivo, Persian speedwell (Veronica persica); settings: amount of applied herbicide 320 g/ha
Outline: as §4

## Cc1nn(C)c(=O)c(-c2c(-c3ccc(Cl)c(F)c3)sc3ccc(F)cc23)c1O [2-350]
Late watergrass [1]
  Herbicidal effect on A: late watergrass (grade 0-5): 3 (Herbicidal rate of 40% or more and less than 70%)
Japanese bulrush [2]
  Herbicidal effect on B: Japanese bulrush (grade 0-5): 0 (Herbicidal rate of 5% or less (almost no effect))
oval-leafed pondweed [3]
  Herbicidal effect on C: oval-leafed pondweed (grade 0-5): 0 (Herbicidal rate of 5% or less (almost no effect))
Late watergrass [4]
  herbicidal effect rating, A: late watergrass: 0 (Herbicidal rate of 5% or less (almost no effect))
Japanese bulrush [5]
  herbicidal effect rating, B: Japanese bulrush: 2 (Herbicidal rate of 20% or more and less than 40%)
oval-leafed pondweed [6]
  herbicidal effect rating, C: oval-leafed pondweed: 0 (Herbicidal rate of 5% or less (almost no effect))
Barnyard grass [7]
  herbicidal effect on H: barnyard grass: 5 (Herbicidal rate of 90% or more (almost completely withered))
Chinese sprangletop
  herbicidal effect on D: Chinese sprangletop: 5 (Herbicidal rate of 90% or more (almost completely withered))
Rice flat sedge
  herbicidal effect on E: rice flat sedge: 5 (Herbicidal rate of 90% or more (almost completely withered))
Southern crabgrass
  herbicidal effect on F: southern crabgrass: 4 (Herbicidal rate of 70% or more and less than 90%)
Green foxtail
  herbicidal effect on G: green foxtail: 5 (Herbicidal rate of 90% or more (almost completely withered))
Barnyard grass [8]
  herbicidal effect on H: barnyard grass: 5 (Herbicidal rate of 90% or more (almost completely withered))
Wild oat
  herbicidal effect on I: wild oat: 0 (Herbicidal rate of 5% or less (almost no effect))
blackgrass
  herbicidal effect on J: blackgrass: 0 (Herbicidal rate of 5% or less (almost no effect))
Italian ryegrass
  herbicidal effect on K: Italian ryegrass: 4 (Herbicidal rate of 70% or more and less than 90%)
windgrass
  herbicidal effect on L: windgrass: 4 (Herbicidal rate of 70% or more and less than 90%)
velvetleaf
  herbicidal effect on M: velvetleaf: 3 (Herbicidal rate of 40% or more and less than 70%)
Redroot pigweed
  herbicidal effect on N: redroot pigweed: 5 (Herbicidal rate of 90% or more (almost completely withered))
lambsquarters
  herbicidal effect on O: lambsquarters: 4 (Herbicidal rate of 70% or more and less than 90%)
chickweed
  herbicidal effect on P: chickweed: 3 (Herbicidal rate of 40% or more and less than 70%)
Persian speedwell
  herbicidal effect on R: persian speedwell: 5 (Herbicidal rate of 90% or more (almost completely withered))

## CCCC(=O)Oc1c(C)nn(C)c(=O)c1-c1c(-c2ccc(Cl)c(F)c2)sc2ccc(F)cc12 [2-351]
Late watergrass [1]
  Herbicidal effect on A: late watergrass (grade 0-5): 5 (Herbicidal rate of 90% or more (almost completely withered))
Japanese bulrush [2]
  Herbicidal effect on B: Japanese bulrush (grade 0-5): 3 (Herbicidal rate of 40% or more and less than 70%)
oval-leafed pondweed [3]
  Herbicidal effect on C: oval-leafed pondweed (grade 0-5): 3 (Herbicidal rate of 40% or more and less than 70%)
Late watergrass [4]
  herbicidal effect rating, A: late watergrass: 3 (Herbicidal rate of 40% or more and less than 70%)
Japanese bulrush [5]
  herbicidal effect rating, B: Japanese bulrush: 3 (Herbicidal rate of 40% or more and less than 70%)
oval-leafed pondweed [6]
  herbicidal effect rating, C: oval-leafed pondweed: 4 (Herbicidal rate of 70% or more and less than 90%)
Barnyard grass [7]
  herbicidal effect on H: barnyard grass: 5 (Herbicidal rate of 90% or more (almost completely withered))
Chinese sprangletop
  herbicidal effect on D: Chinese sprangletop: 5 (Herbicidal rate of 90% or more (almost completely withered))
Rice flat sedge
  herbicidal effect on E: rice flat sedge: 4 (Herbicidal rate of 70% or more and less than 90%)
Southern crabgrass
  herbicidal effect on F: southern crabgrass: 0 (Herbicidal rate of 5% or less (almost no effect))
Green foxtail
  herbicidal effect on G: green foxtail: 0 (Herbicidal rate of 5% or less (almost no effect))
Barnyard grass [8]
  herbicidal effect on H: barnyard grass: 0 (Herbicidal rate of 5% or less (almost no effect))
Wild oat
  herbicidal effect on I: wild oat: 0 (Herbicidal rate of 5% or less (almost no effect))
blackgrass
  herbicidal effect on J: blackgrass: 0 (Herbicidal rate of 5% or less (almost no effect))
Italian ryegrass
  herbicidal effect on K: Italian ryegrass: 0 (Herbicidal rate of 5% or less (almost no effect))
windgrass
  herbicidal effect on L: windgrass: 0 (Herbicidal rate of 5% or less (almost no effect))
velvetleaf
  herbicidal effect on M: velvetleaf: 0 (Herbicidal rate of 5% or less (almost no effect))
Redroot pigweed
  herbicidal effect on N: redroot pigweed: 3 (Herbicidal rate of 40% or more and less than 70%)
lambsquarters
  herbicidal effect on O: lambsquarters: 3 (Herbicidal rate of 40% or more and less than 70%)
chickweed
  herbicidal effect on P: chickweed: 1 (Herbicidal rate of 5% or more and less than 20%)
Persian speedwell
  herbicidal effect on R: persian speedwell: 3 (Herbicidal rate of 40% or more and less than 70%)

## CCCC(=O)Oc1c(C)nn(C)c(=O)c1-c1c(-c2ccc(F)c(Cl)c2)sc2ccc(F)cc12 [2-353]
Late watergrass [1]
  Herbicidal effect on A: late watergrass (grade 0-5): 2 (Herbicidal rate of 20% or more and less than 40%)
Japanese bulrush [2]
  Herbicidal effect on B: Japanese bulrush (grade 0-5): 0 (Herbicidal rate of 5% or less (almost no effect))
oval-leafed pondweed [3]
  Herbicidal effect on C: oval-leafed pondweed (grade 0-5): 0 (Herbicidal rate of 5% or less (almost no effect))
Late watergrass [4]
  herbicidal effect rating, A: late watergrass: 4 (Herbicidal rate of 70% or more and less than 90%)
Japanese bulrush [5]
  herbicidal effect rating, B: Japanese bulrush: 3 (Herbicidal rate of 40% or more and less than 70%)
oval-leafed pondweed [6]
  herbicidal effect rating, C: oval-leafed pondweed: 3 (Herbicidal rate of 40% or more and less than 70%)
Barnyard grass [7]
  herbicidal effect on H: barnyard grass: 5 (Herbicidal rate of 90% or more (almost completely withered))
Chinese sprangletop
  herbicidal effect on D: Chinese sprangletop: 5 (Herbicidal rate of 90% or more (almost completely withered))
Rice flat sedge
  herbicidal effect on E: rice flat sedge: 5 (Herbicidal rate of 90% or more (almost completely withered))
Southern crabgrass
  herbicidal effect, F: southern crabgrass: 3 (Herbicidal rate of 40% or more and less than 70%)
Green foxtail
  herbicidal effect, G: green foxtail: 1 (Herbicidal rate of 5% or more and less than 20%)
Barnyard grass [8]
  herbicidal effect, H: barnyard grass: 1 (Herbicidal rate of 5% or more and less than 20%)
Wild oat
  herbicidal effect, I: wild oat: 0 (Herbicidal rate of 5% or less (almost no effect))
blackgrass
  herbicidal effect, J: blackgrass: 0 (Herbicidal rate of 5% or less (almost no effect))
Italian ryegrass
  herbicidal effect, K: Italian ryegrass: 4 (Herbicidal rate of 70% or more and less than 90%)
windgrass
  herbicidal effect, L: windgrass: 3 (Herbicidal rate of 40% or more and less than 70%)
velvetleaf
  herbicidal effect, M: velvetleaf: 2 (Herbicidal rate of 20% or more and less than 40%)
Redroot pigweed
  herbicidal effect, N: redroot pigweed: 4 (Herbicidal rate of 70% or more and less than 90%)
lambsquarters
  herbicidal effect, O: lambsquarters: 4 (Herbicidal rate of 70% or more and less than 90%)
chickweed
  herbicidal effect, P: chickweed: 3 (Herbicidal rate of 40% or more and less than 70%)
Persian speedwell
  herbicidal effect, R: persian speedwell: 3 (Herbicidal rate of 40% or more and less than 70%)
